Results on four compounds are retold here after patent publication US9951035B2, “Selective matrix metalloproteinase inhibitors” (University of Notre Dame du Lac, priority 2014, dated 2018).

The target of one data set is ADAM9 (Homo sapiens (Human), UniProt Q13443). Description: Enzyme inhibition studies, ADAM9. The data set is classed as biochemical.
The target in a further data set is ADAM10 (Homo sapiens (Human), UniProt O14672). In words: Enzyme inhibition studies, ADAM10. It counts as biochemical.
Sequence of ADAM10 (O14672 214-672): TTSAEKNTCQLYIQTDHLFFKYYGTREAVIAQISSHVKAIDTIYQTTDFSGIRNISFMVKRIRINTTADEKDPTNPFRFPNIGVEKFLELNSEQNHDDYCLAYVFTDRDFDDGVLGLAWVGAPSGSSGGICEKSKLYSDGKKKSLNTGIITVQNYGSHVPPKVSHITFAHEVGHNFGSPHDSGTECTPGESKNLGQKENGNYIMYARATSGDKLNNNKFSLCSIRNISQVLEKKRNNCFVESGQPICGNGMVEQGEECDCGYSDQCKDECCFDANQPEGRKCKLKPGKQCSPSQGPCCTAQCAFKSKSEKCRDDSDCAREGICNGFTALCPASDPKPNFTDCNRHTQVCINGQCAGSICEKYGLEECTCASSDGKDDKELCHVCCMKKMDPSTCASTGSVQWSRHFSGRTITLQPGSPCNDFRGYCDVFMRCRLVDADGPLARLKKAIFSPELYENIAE
The next data set concerns the target MMP-2 (Homo sapiens (Human), UniProt P08253). Description: Enzyme inhibition studies, MMP-2. It counts as biochemical.
The next data set addresses MMP-9 (Homo sapiens (Human), UniProt P14780). Description: Enzyme inhibition studies, MMP-9 catalytic domain. It counts as biochemical. The note with it: for residence time: reciprocal of koff.
The target of a further data set is MMP-14 (Homo sapiens (Human), UniProt P50281). In words: Enzyme inhibition studies, MMP-14 catalytic domain. It counts as biochemical.
In another data set the target is MMP-1 (Homo sapiens (Human), UniProt P03956). In words: Enzyme inhibition studies, MMP-1 catalytic domain. The data set is classed as biochemical.
Sequence of MMP-1 (P03956 98-276): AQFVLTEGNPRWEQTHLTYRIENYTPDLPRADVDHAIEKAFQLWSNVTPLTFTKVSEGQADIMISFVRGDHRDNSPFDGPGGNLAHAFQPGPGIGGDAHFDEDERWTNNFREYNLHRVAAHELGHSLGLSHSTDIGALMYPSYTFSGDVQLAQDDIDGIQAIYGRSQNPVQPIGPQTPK
The next data set concerns the target MMP-3 (Homo sapiens (Human), UniProt P08254). In words: Enzyme inhibition studies, MMP-3 catalytic domain. The data set is classed as biochemical.
The target in another data set is MMP-7 (Homo sapiens (Human), UniProt P09237). Description: Enzyme inhibition studies, MMP-7. It counts as biochemical.
Sequence of MMP-7 (P09237 95-267): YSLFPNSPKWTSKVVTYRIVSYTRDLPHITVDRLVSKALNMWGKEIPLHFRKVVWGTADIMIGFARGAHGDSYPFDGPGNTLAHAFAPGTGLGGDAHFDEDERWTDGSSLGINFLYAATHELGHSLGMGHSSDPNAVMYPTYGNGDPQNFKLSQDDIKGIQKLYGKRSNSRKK
In a further data set the target is MMP-8 (Homo sapiens (Human), UniProt P22894). In words: Enzyme inhibition studies, MMP-8 catalytic domain. The data set is classed as biochemical.
Sequence of MMP-8 (P22894 100-262): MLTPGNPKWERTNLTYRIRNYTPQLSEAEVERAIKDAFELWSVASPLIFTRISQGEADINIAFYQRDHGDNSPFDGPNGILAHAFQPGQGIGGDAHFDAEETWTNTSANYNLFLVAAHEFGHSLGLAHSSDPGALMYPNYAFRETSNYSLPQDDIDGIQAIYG
Data set [1] is described as follows: Stability in buffers of the kinetic assays. It counts as physicochemical. The source says: Human recombinant active MMP-2 and MMP-7, and the catalytic domains of MMP-3 and MMP-14/MT1-MMP were purchased from EMD Chemicals, Inc. (San Diego, Calif., USA); human recombinant catalytic domains of MMP-1, MMP-8, and MMP-9 were purchased from Enzo Life Sciences, Inc. (Farmingdale, N.Y., USA); human recombinant active ADAM9 and ADAM10 were purchased from R&D Systems (Minneapolis, Minn., USA). Fluorogenic substrates MOCAc-Pro-Leu-Gly-Leu-A2pr(Dnp)-Ala-Arg-NH2 (for MMP-2, MMP-7, MMP-9 and MMP-14) and MOCAc-Arg-Pro-Lys-Pro-Val-Glu-Nva-Trp-Arg-Lys(Dnp)-NH2 (for MMP-3) were purchased from Peptides International (Louisville, Ky., USA); Mca-KPLGL-Dpa-AR-NH2 (for MMP-1, MMP-8 and ADAM10) and Mca-PLAQAV-Dpa-RSSSR-NH2 (for ADAM9) were purchased from R&D Systems (Minneapolis, Minn., USA). […] Inhibitor stock solutions (10 mM) were prepared fresh in DMSO before enzyme inhibition assays. We followed the same methodology for enzyme inhibition studies as reported by Page-McCaw et al. (Nat. Rev. Mol. Cell Biol. 2007, 8, 221-233). Enzyme inhibition studies were carried out using a Cary Eclipse fluorescence spectrophotometer (Varian, Walnut Creek, Calif., USA). Compounds 4, 5, 6 and 7 were stable in the buffers that were used in the kinetic assays.

For data set [2] the following is noted: mouse, in vivo, iv, 5 mg/kg.
Protocol: (§1) Mice (male CD-1, 6-7 weeks old, ˜30 g body weight, specific pathogen free) were purchased from Charles River Laboratories, Inc. (Wilmington, Mass., USA).
(§2) Samples were analyzed by ultraperformance liquid chromatography (UPLC)/(+)electrospray ionization (ESI)-multiple-reaction monitoring (MRM) with a reversed phase C18 column (Acclaim® RSLC 120 C18, 2.2 μm, 120 Å, 2.1×100 mm, Dionex, Sunnyvale, Calif., USA).
(§3) Quantification of the compounds in plasma and brain was obtained using peak-area ratios of the compounds to the internal standard, and the linear-regression parameters obtained from the calibration curves.
Another data set can be described thus: in vivo. The note with it: male, CD-1, mouse, iv, 5 mg/kg.
The nature of another data set: physchem. Conditions: water, thermodynamic from solid.
Data set [3] is described as follows: Pharmacokinetics and brain distribution after single iv dose. Conditions: for crossing of the blood-brain barrier: in words.
Protocol: as §1, §2, §3
The nature of data set [4]: Water solubility (filtrate of saturated aqueous solution, UPLC-MRM).
The mark [5] stands for this setting: catalytic domain, slow-binding, Ki from koff/kon, read-out: Ki.
Setting [6] is: 2 min after 5 mg/kg single iv, mice.
Setting [7] is: 5 min after 5 mg/kg single iv, mice.
[8] abbreviates: 10 min after 5 mg/kg single iv, mice.
Where [9] appears, read: 30 min after 5 mg/kg single iv, mice.
The mark [10] stands for this setting: 60 min after 5 mg/kg single iv, mice.
Where [11] appears, read: 90 min after 5 mg/kg single iv, mice.
Setting [12] is: 120 min after 5 mg/kg single iv, mice.
[13] abbreviates: 240 min after 5 mg/kg single iv, mice.
[14] abbreviates: 2 min after 5 mg/kg single iv, mice, HCl salt.
The mark [15] stands for this setting: male, CD-1, mouse, in vivo, 5 mg/kg.
Setting [16] is: male, CD-1, mouse, in vivo, iv, 5 mg/kg.
Where [17] appears, read: plasma, 5 mg/kg single iv, mice.

“And” between values parts separate entries of the source, which are not always exact repeats. Equal entries are not always repeated. Structures can show the parent of a compound that is named as a salt. Where two headings read alike, the source gives them in different places.

Sequence of MMP-9 (P14780 107-444): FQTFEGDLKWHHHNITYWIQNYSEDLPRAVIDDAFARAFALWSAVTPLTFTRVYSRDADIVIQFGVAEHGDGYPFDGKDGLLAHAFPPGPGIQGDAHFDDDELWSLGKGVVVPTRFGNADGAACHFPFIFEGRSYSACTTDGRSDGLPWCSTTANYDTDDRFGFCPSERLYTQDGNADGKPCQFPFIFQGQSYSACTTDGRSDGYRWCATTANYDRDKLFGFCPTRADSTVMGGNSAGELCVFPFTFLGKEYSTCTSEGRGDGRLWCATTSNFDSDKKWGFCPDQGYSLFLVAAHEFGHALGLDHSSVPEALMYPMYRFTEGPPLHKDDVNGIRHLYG
Sequence of MMP-2 (P08253 110-660): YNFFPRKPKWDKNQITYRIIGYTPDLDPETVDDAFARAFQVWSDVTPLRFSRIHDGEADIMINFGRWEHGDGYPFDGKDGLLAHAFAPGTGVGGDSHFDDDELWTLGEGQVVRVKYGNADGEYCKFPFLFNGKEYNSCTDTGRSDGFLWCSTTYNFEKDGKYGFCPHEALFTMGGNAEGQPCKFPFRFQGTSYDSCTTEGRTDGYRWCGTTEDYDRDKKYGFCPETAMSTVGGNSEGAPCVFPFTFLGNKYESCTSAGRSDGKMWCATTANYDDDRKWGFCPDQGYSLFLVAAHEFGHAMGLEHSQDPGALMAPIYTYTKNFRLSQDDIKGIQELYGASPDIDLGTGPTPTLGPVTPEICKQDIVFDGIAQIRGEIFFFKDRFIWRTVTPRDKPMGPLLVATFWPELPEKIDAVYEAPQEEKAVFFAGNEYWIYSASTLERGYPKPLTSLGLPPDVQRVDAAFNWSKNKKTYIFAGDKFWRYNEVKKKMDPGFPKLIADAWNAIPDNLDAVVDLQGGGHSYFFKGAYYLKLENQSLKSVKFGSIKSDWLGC
Sequence of ADAM9 (Q13443 206-697): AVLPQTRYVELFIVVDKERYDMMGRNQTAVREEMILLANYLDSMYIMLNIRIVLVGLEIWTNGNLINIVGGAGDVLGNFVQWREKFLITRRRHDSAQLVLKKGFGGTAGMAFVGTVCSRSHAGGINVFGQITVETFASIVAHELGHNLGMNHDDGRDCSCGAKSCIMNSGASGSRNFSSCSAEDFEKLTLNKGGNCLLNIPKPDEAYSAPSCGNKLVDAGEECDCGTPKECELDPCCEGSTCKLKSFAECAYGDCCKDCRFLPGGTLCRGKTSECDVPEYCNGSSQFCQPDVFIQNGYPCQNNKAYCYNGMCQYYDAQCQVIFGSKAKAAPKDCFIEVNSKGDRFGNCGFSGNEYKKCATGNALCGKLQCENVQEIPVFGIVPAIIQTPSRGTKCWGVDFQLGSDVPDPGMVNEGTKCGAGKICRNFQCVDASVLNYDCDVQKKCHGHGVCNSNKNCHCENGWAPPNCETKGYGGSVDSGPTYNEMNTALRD
Sequence of MMP-3 (P08254 100-272): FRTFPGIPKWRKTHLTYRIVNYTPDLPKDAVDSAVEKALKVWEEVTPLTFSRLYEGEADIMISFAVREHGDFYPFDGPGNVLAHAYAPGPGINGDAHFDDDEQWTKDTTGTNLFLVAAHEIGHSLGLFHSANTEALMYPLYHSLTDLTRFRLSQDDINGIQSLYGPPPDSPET
Protocol for in vivo: as §1, §2, §3

For the compound `O=S(=O)(CC1CS1)c1ccc(Oc2ccccc2)cc1` (stereo not drawn) [Compound 1, reference compound], the inhibition at 20 µM on ADAM9 (at 20 μM, read-out: Inhibition) stood at 36%; at ADAM10 (at 20 μM, read-out: Inhibition), 34%.

`NCc1nc(-c2ccc(Oc3ccc(S(=O)(=O)CC4CS4)cc3)cc2)no1` (stereo not drawn) [Compound 4, (3-(4-(4-((Thiiran-2-ylmethyl)sulfonyl)phenoxy)phenyl)-1,2,4-oxadiazol-5-yl)methanamine.HCl salt]: the results for the kon at MMP-2, on MMP-9 and at MMP-14 were 521 ± 22 M⁻¹ s⁻¹, 32 ± 2.3 M⁻¹ s⁻¹ and 121 ± 11 M⁻¹ s⁻¹, respectively. Also, the koff on MMP-2 (read-out: 10^3 koff) came out at 0.33 ± 0.027 s⁻¹; at MMP-9 (read-out: 10^3 koff), 1.1 ± 0.03 s⁻¹; on MMP-14 (read-out: 10^3 koff), 1.14 ± 0.09 s⁻¹. For the same compound, the residence time on MMP-2 (reciprocal of koff) is 50.5 ± 4.1 min; at MMP-9, 15.2 ± 0.4 min; at MMP-9 (read-out: residence time), 15.2 to 47.4 min; on MMP-14 (reciprocal of koff), 14.6 ± 1.1 min. Besides, the Ki on MMP-2 (slow-binding, Ki calculated from koff/kon, read-out: Ki) was 0.63 ± 0.06 µM; on MMP-9 (setting [5]) it was 34 µM; on MMP-14 (setting [5]), 9.4 µM. The inhibition at 100 µM came to 8% against MMP-1; 17% against MMP-3 (at 100 μM); 8% at MMP-7; 5% on ADAM9; 1% against ADAM10. Moreover, testing at 50 µM at MMP-8 gave an inhibition of 24%. For the same compound, the “stability in the buffers used in the kinetic assays” value in data set [1] was “stable”. Further, in data set [2], the AUC0-last is 108 pmol·min/mg. Moreover, in [2], the “AUC0-∞” value came out at 108 pmol·min/mg. This compound also registered an AUCbrain/AUCplasma in data set [2] of 0.138. In “in vivo”, this compound showed an AUC(0-inf) of 13.1 µM·h. In “in vivo”, this compound gave an AUC(0-t) of 13 µM·h. In addition, in “in vivo”, the Vd is 0.0213 L/kg. This compound registered a clearance in “in vivo” of 0.948 L/h/kg. Besides, the solubility in the data set “physchem” worked out at 0.61 mg/mL. In addition, the “clearance as % of hepatic blood flow” value in data set [3] (5 mg/kg single iv, mice) is given as 19%. In addition, the Brain concentration in data set [3] (setting [6]) stood at 9.76±7.24 pmol/mg tissue; in data set [3] (setting [7]), 5.98 ± 2.94 pmol/mg tissue; in [3] (setting [8]) it was 3.27 ± 0.14 pmol/mg tissue; in [3] (setting [9]), 0.249 ± 0.127 pmol/mg tissue; in data set [3] (setting [10]), 0.0253 ± 0.0221 pmol/mg tissue; in data set [3] (setting [11]) it was 0.00548 ± 0.00476 pmol/mg tissue. In addition, the Plasma concentration was 62.4 ± 61.6 µM in data set [3] (setting [6]); 2.19 ± 0.09 µM in [3] (setting [7]); 2.14 ± 1.51 µM in data set [3] (setting [8]); 0.097 ± 0.09 µM and 0.0970 ± 0.0920 µM in [3] (setting [9]); 0.0863 ± 0.0303 µM in data set [3] (setting [10]); 0.0716 ± 0.0500 µM in data set [3] (setting [11]). Further, the figures for the Plasma concentration in data set [3] (setting [12]) and in data set [3] (setting [13]) were 0.0318 ± 0.0311 µM and 0.0149 ± 0.0129 µM, respectively. In addition, in data set [3], the “crossing of the blood-brain barrier” value is recorded as “cross the blood-brain barrier”.

Compound `N=C(N)Nc1ccc(Oc2ccc(S(=O)(=O)CC3CS3)cc2)cc1` (stereo not drawn) [Compound 7, 1-(4-(4-((Thiiran-2-ylmethyl)sulfonyl)phenoxy)phenyl)guanidine HCl salt] registered a Ki on MMP-14 of 0.04 ± 0.002 µM. The compound also had an inhibition at 100 µM against MMP-1 of 4%. Also, the Ki at MMP-3 is 19 ± 1 µM. Further, at MMP-7, the inhibition at 100 µM came to 4%. This compound also yielded an inhibition at 100 µM on ADAM9 of 14%. On ADAM10, the inhibition at 100 µM was found to be 25%. In addition, in [1] (in words), the “stability in the buffers used in the kinetic assays” value is reported as “stable”. For the same compound, in data set [3] (5 mg/kg single iv, mice), the “time brain levels above Ki for MMP-2” value was 120 min, the “time brain levels above Ki for MMP-9” value is recorded as 30 min, the “time plasma levels above Ki for MMP-2” value is recorded as 90 min and the “time plasma levels above Ki for MMP-9” value was found to be 60 min. Besides, in data set [3] (setting [14]), the Brain concentration is listed as 0.577±0.560 pmol/mg tissue and the Plasma concentration came to 12.6 ± 10.9 µM. Besides, the Brain concentration in data set [3] (setting [7]) came out at 0.476 ± 0.470 pmol/mg tissue. The compound also showed a Brain concentration in data set [3] (setting [8]) of 0.216 ± 0.071 pmol/mg tissue. Further, the Brain concentration in data set [3] (setting [9]) is listed as 0.117 ± 0.024 pmol/mg tissue. Also, in data set [3] (setting [10]), the Brain concentration is given as 0.0228 ± 0.0033 pmol/mg tissue. This compound also came in with a Brain concentration in data set [3] (setting [11]) of 0.0409 ± 0.0155 pmol/mg tissue. Further, in [3] (setting [12]), the Brain concentration was 0.0222 ± 0.0072 pmol/mg tissue. The compound further displayed a Brain concentration in data set [3] (setting [13]) of 0.0161 ± 0.0035 pmol/mg tissue. Besides, in data set [3] (brain, 5 mg/kg single iv, mice), the AUC0-last was 14.3 pmol·min/mg, the “AUC0-∞” value came out at 17.4 pmol·min/mg, the t1/2α turned out to be 47 min and the t1/2β worked out at 133 min. The “crossing of the blood-brain barrier” value in [3] was “cross the blood-brain barrier”. In data set [3] (setting [15]), this compound yielded a concentration at 2 min of 12.6 ± 10.9 µM, a concentration at 5 min of 4.37 ± 2.63 µM, a concentration at 10 min of 3.92 ± 0.78 µM and a concentration at 30 min of 0.482 ± 0.229 µM. In data set [3] (setting [15]), the concentration at 60 min is 0.119 ± 0.051 µM, the concentration at 90 min worked out at 0.022 ± 0.008 µM, the concentration at 120 min came to 0.0063 ± 0.0049 µM and the concentration at 240 min was found to be 0.0032 ± 0.00266 µM. In data set [3] (setting [16]), this compound had an AUC(0-inf) of 2.13 µM·h, an AUC(0-t) of 2.13 µM·h, a Kp of 0.136 and a Vd of 1.08 L/kg. This compound also displayed a clearance in [3] (setting [16]) of 6.42 L/h/kg. Also, in data set [3] (setting [17]), the CL amounted to 6.42 L/h/kg, the t1/2α turned out to be 5.22 min and the t1/2β came out at 64.2 min. In addition, the Aq. solubility in [4] amounted to 32 mg/mL. For the same compound, in data set [4] (thermodynamic from solid), the solubility amounted to 32 mg/mL.

Turning to `COC(=O)Nc1ccc(Oc2ccc(S(=O)(=O)CC3CS3)cc2)cc1` (stereo not drawn) [ND-380], at MMP-9 (read-out: MMP-9 Ki), the Ki stood at 0.18 ± 0.03 µM.
